Test results reported in ChEMBL document CHEMBL6096632, “Synthesis and evaluation of N-arylindazole-3-carboxamide derivatives as novel antiviral agents against SARS-CoV-2” (Bioorg Med Chem Lett, 2024).

Columns and labels:
[1] = Cytotoxicity against African green monkey Vero cells incubated for 24 hrs by WST reagent based EZ-cytox assay; assay type: toxicity, cell-based; details: chlorocebus sabaeus
SARS-CoV-2 = test: Antiviral activity against SARS-CoV-2 expressing nucleocapsid protein infected in African green monkey Vero cells assessed as inhibition of viral growth by Hoechst 33342 staining based immunofluorescence analysis; assay type: functional, organism-based; details: Severe acute respiratory syndrome coronavirus 2, Vero
[2] = Selectivity index, ratio of CC50 for African green monkey Vero cells to EC50 for antiviral activity against SARS-CoV-2 expressing nucleocapsid protein infected in African green monkey Vero cells; assay type: toxicity, cell-based; details: read-out: Ratio CC50/EC50
CYP1A2 = molecular target: T1, CYP1A2 (Homo sapiens, UniProt P05177); test: Inhibition of CYP1A2 in human liver microsomes using phenacetin as substrate at 10 uM preincubated for 5 mins followed by substrate and NADPH addition and measured after 20 mins by HPLC-MS/MS analysis; assay type: ADME, Microsome; details: probe phenacetin, time 25 min
T1 sequence (P05177 whole entry): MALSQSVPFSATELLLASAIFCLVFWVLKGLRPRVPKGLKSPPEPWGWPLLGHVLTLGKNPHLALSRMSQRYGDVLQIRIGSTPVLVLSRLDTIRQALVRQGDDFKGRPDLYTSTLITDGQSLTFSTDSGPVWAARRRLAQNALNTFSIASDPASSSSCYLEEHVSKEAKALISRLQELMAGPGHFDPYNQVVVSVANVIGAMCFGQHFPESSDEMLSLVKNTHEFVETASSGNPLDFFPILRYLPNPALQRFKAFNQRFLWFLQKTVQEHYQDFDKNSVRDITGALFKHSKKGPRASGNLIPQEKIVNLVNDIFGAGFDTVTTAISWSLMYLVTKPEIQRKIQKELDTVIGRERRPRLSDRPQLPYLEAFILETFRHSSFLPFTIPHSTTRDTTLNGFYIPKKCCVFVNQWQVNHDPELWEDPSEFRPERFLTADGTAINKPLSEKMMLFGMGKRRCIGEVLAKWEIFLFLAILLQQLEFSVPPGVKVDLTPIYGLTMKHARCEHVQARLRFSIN

[3] = Metabolic stability in human liver microsomes assessed as parent compound remaining preincubated for 10 mins followed by NADPH addition and measured after 30 mins by HPLC-MS/MS analysis; assay type: ADME, Microsome; details: time 40 min, read-out: Stability
[4] = Cytotoxicity against HFL1 cells incubated for 24 hrs by WST reagent based EZ-cytox assay; assay type: toxicity, cell-based; details: human
CYP2C19 = CYP2C19 (Homo sapiens, UniProt P33261); test: Inhibition of CYP2C19 in human liver microsomes using S-mephenytoin as substrate at 10 uM preincubated for 5 mins followed by substrate and NADPH addition and measured after 20 mins by HPLC-MS/MS analysis; assay type: ADME, Microsome; details: probe S-mephenytoin, time 25 min
CYP2C19, sequence (P33261 whole entry): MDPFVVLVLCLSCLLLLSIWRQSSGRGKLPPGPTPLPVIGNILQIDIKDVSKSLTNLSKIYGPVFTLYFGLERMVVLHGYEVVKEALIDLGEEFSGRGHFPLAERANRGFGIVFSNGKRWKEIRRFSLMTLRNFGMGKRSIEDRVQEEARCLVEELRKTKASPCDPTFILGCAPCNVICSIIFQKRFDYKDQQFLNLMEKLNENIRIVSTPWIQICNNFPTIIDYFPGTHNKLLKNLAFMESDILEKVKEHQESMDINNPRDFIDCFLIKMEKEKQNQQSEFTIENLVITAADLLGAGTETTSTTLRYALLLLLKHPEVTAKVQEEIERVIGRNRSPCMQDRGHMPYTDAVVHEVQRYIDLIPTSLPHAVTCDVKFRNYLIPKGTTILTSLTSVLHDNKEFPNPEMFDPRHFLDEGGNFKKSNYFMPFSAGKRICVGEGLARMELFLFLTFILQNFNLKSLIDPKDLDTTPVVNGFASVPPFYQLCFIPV

[5] = Metabolic stability in mouse liver microsomes assessed as parent compound remaining preincubated for 10 mins followed by NADPH addition and measured after 30 mins by HPLC-MS/MS analysis; assay type: ADME, Microsome; details: time 40 min, read-out: Stability
[6] = Cytotoxicity against CHO-K1 cells incubated for 24 hrs by WST reagent based EZ-cytox assay; assay type: toxicity, cell-based, Cricetulus griseus; details: chinese hamster
CYP2D6 = CYP2D6 (Homo sapiens, UniProt P10635); test: Inhibition of CYP2D6 in human liver microsomes using dextromethorphan as substrate at 10 uM preincubated for 5 mins followed by substrate and NADPH addition and measured after 20 mins by HPLC-MS/MS analysis; assay type: ADME, Microsome; details: probe dextromethorphan, time 25 min
CYP2D6, sequence (P10635 whole entry): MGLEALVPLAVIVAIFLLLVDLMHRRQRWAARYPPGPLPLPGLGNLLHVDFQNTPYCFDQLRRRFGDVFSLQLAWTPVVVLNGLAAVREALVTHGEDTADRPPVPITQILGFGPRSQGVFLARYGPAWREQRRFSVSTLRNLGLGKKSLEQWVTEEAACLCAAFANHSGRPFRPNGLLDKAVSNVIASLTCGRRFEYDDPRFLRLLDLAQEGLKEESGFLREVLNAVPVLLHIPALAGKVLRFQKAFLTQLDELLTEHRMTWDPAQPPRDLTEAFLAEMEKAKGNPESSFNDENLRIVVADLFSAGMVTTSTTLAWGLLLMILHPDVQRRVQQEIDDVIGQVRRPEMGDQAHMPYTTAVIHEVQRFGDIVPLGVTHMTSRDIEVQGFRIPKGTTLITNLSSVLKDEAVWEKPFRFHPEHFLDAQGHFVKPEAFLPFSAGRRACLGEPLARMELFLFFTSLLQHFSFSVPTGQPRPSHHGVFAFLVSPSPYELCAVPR

CYP2C9 = CYP2C9 (Homo sapiens, UniProt P11712); test: Inhibition of CYP2C9 in human liver microsomes using tolbutamide as substrate at 10 uM preincubated for 5 mins followed by substrate and NADPH addition and measured after 20 mins by HPLC-MS/MS analysis; assay type: ADME, Microsome; details: probe tolbutamide, time 25 min
CYP2C9, sequence (P11712 whole entry): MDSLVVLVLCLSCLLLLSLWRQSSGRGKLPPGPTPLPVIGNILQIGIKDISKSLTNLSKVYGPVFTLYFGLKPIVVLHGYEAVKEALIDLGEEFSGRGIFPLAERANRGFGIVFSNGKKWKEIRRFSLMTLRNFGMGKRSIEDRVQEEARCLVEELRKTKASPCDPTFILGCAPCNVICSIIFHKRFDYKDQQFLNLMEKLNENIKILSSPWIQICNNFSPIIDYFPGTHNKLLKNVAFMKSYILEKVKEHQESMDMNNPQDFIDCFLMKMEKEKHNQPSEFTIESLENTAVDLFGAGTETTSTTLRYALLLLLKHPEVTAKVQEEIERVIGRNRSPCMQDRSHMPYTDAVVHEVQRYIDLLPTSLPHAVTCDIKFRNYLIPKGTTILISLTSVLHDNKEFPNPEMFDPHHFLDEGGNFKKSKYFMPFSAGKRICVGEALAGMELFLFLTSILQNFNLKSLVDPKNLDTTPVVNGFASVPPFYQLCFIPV

hERG (KCNH2) = hERG (KCNH2) (Homo sapiens, UniProt Q12809); test: Inhibition of human ERG at 10 uM by fluorescence polarization relative to control; assay type: toxicity
hERG (KCNH2), sequence (Q12809 whole entry): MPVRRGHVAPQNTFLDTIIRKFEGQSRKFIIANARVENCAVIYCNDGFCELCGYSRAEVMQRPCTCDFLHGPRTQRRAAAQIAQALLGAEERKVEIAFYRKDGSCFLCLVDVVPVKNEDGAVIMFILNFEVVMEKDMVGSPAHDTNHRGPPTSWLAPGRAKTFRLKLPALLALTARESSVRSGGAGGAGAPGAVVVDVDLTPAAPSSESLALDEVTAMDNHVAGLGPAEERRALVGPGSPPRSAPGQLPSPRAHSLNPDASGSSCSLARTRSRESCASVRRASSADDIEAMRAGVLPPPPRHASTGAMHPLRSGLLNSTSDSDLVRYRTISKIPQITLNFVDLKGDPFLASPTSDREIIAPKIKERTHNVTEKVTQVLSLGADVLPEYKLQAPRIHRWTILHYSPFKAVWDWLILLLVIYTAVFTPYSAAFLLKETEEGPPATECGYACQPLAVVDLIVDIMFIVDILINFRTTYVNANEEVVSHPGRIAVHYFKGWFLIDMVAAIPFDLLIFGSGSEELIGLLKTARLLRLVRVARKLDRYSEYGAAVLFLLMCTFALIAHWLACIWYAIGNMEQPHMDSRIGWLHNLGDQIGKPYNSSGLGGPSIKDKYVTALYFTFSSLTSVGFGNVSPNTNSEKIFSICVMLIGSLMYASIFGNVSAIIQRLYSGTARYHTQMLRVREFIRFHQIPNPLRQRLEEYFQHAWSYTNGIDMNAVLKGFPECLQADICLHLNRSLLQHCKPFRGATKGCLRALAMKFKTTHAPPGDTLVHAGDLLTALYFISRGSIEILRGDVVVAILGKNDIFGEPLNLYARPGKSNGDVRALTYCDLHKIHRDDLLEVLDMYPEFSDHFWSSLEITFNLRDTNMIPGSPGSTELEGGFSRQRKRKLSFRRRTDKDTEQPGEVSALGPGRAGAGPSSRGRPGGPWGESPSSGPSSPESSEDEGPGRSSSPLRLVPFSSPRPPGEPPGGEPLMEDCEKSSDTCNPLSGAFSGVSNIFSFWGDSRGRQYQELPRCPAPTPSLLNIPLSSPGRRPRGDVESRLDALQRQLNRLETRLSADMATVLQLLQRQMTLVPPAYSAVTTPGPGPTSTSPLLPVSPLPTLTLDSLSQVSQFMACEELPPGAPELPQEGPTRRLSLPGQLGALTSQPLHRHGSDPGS

CYP3A4 = CYP3A4 (Homo sapiens, UniProt P08684); test: Inhibition of CYP3A4 in human liver microsomes using […] as substrate at 10 uM preincubated for 5 mins followed by substrate and NADPH addition and measured after 20 mins by HPLC-MS/MS analysis; assay type: ADME, Microsome; details: probe sorafenib, time 25 min
CYP3A4, sequence (P08684 whole entry): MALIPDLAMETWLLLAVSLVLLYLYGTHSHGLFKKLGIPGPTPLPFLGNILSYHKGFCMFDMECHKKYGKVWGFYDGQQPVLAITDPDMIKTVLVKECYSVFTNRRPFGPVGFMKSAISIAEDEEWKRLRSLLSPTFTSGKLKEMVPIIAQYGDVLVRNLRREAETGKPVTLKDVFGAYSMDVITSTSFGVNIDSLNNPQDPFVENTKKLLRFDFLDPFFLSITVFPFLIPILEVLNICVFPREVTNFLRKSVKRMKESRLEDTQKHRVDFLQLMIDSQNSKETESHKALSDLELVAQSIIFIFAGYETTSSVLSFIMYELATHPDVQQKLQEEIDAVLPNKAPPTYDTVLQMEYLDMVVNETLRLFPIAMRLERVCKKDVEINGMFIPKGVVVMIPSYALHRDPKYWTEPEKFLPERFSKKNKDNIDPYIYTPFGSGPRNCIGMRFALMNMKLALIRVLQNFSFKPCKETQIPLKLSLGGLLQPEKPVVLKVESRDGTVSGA

[7] = Cytotoxicity against mouse L929 cells incubated for 24 hrs by WST reagent based EZ-cytox assay; assay type: toxicity, cell-based
[8] = Cytotoxicity against mouse NIH3T3 cells incubated for 24 hrs by WST reagent based EZ-cytox assay; assay type: toxicity, cell-based
[9] = test system: Middle East respiratory syndrome-related coronavirus; test: Antiviral activity against MERS-CoV expressing spike protein infected in African green monkey Vero cells assessed as inhibition of viral growth by Hoechst 33342 staining based immunofluorescence analysis; assay type: functional, organism-based

| SMILES | CC50 at 24 h [1] [µM] | EC50 (SARS-CoV-2) [µM] | selectivity ratio [2] | further results |
| --- | --- | --- | --- | --- |
| O=C(Nc1ccc(Cl)cc1)c1n[nH]c2ccc(Cl)cc12 | > 25 | > 25 | 1 |  |
| O=C(Nc1ccc(F)cc1)c1n[nH]c2ccc(Cl)cc12 | > 25 | > 25 | 1 |  |
| O=C(Nc1ccccc1F)c1n[nH]c2ccc(Cl)cc12 | > 25 | > 25 | 1 |  |
| O=C(NC1CCCCC1)c1n[nH]c2ccc(Cl)cc12 | > 25 | > 25 | 1 |  |
| O=C(Nc1cc(Cl)cc(Cl)c1)c1n[nH]c2ccc(Cl)cc12 | > 20 | 0.69 | > 36 | inhibition at 20 min, 10 µM (CYP1A2): 11%; remaining at 0.5 h [3]: 97%; CC50 at 24 h [4]: > 100 µM; inhibition at 20 min, 10 µM (CYP2C19): 8%; remaining at 0.5 h [5]: 48%; CC50 at 24 h [6]: > 100 µM; inhibition at 20 min, 10 µM (CYP2D6): 1%; inhibition at 20 min, 10 µM (CYP2C9): 14%; inhibition at 10 µM (hERG (KCNH2)): < 1%; inhibition at 20 min, 10 µM (CYP3A4): 54%; CC50 at 24 h [7]: > 100 µM; CC50 at 24 h [8]: > 100 µM |
| O=C(Nc1cc(Cl)cc(Cl)c1)c1n[nH]c2ccccc12 | > 25 | > 25 | 1 | EC50 [9]: 1.7 µM |
| CCCCNC(=O)c1n[nH]c2ccc(Cl)cc12 | > 25 | > 25 | 1 |  |
| Cc1cc(C)cc(NC(=O)c2n[nH]c3ccc(Cl)cc23)c1 | > 25 | 2.3 | > 11.1 |  |
| O=C(Nc1ccccc1Cl)c1n[nH]c2ccc(Cl)cc12 | > 25 | > 25 | 1 |  |
| O=C(Nc1cc(Cl)cc(Cl)c1)c1n[nH]c2ccc(F)cc12 | > 25 | > 25 | 1 |  |
| N#Cc1cccc(NC(=O)c2n[nH]c3ccc(Cl)cc23)c1 | > 25 | 1.8 | > 13.7 |  |
| Cc1cccc(NC(=O)c2n[nH]c3ccc(Cl)cc23)c1 | > 25 | > 25 | 1 |  |
| N#Cc1ccccc1NC(=O)c1n[nH]c2ccc(Cl)cc12 | > 25 | > 25 | 1 |  |
| O=C(Nc1cccc(C(F)(F)F)c1)c1n[nH]c2ccc(Cl)cc12 | > 25 | 2.8 | > 8.8 |  |
| N#Cc1ccc(NC(=O)c2n[nH]c3ccc(Cl)cc23)cc1 | > 25 | > 25 | 1 |  |
| CCC(CC)COC(=O)[C@H](C)N[P@](=O)(OC[C@H]1O[C@@](C#N)(c2ccc3c(N)ncnn23)[C@H](O)[C@@H]1O)Oc1ccccc1 | > 25 |  |  |  |
| O=C(Nc1cccc([N+](=O)[O-])c1)c1n[nH]c2ccc(Cl)cc12 | > 25 | > 25 | 1 |  |
| O=C(Nc1cccc(OC(F)(F)F)c1)c1n[nH]c2ccc(Cl)cc12 | > 25 | 5.5 | > 4.6 |  |
| O=C(Nc1cccc(F)c1)c1n[nH]c2ccc(Cl)cc12 | > 25 | > 25 | 1 |  |
| O=C(Nc1cc(Cl)cc(Cl)c1)c1n[nH]c2cc(F)ccc12 | > 25 | 1.2 | > 21.4 |  |
| O=C(Nc1cc(Cl)cc(Cl)c1)c1n[nH]c2cc(Cl)ccc12 | > 25 | > 25 | 1 |  |
